Seven compounds from ChEMBL document CHEMBL5236584, “Design and synthesis of boron-containing ALK inhibitor with favorable in vivo efficacy” (Bioorg Med Chem, 2022) can be followed below.

The test system of series [1] is NCI-H2228. In words: cells. As to conditions: Homo sapiens, NCI-H2228, 72 h.
Description: Antiproliferative activity against human NCI-H2228 cells assessed as reduction in cell viability measured after 72 hrs by CCK8 assay
Series [2] can be described thus: Tmax in human NCI-H2228 cells xenografted BALB/c nu/nu mouse plasma at 50 mg/kg, po qd for 23 days by UPLC-MS/MS analysis. Format: ADME, organism-based. As to conditions: time 23 day. (In general: In xenograft studies the graft and the host belong to different species.)
Series [3] is described as follows: Cmax in human NCI-H2228 cells xenografted BALB/c nu/nu mouse plasma at 50 mg/kg, po qd for 23 days by UPLC-MS/MS analysis. Also noted: time 23 day, dose 50 mg/kg, route po. The format is ADME, organism-based.
A short description of series [4]: Drug uptake in tumor of BALB/c nu/nu mouse xenografted with human NCI-H2228 cells at 50 mg/kg, po qd for 23 days and measured at 6 hrs post-last drug dosage by UPLC-MS/MS analysis. Format: ADME, organism-based, Neoplasm. As to conditions: time 23 day, read-out: Drug uptake.
The nature of series [5]: Toxicity in BALB/c nu/nu mouse xenografted with human NCI-H2228 cells at 50 mg/kg, po qd for 23 days. Format: organism-based. As to conditions: in vivo, 552 h, time 23 day.
A short description of series [6]: in vitro. As to conditions: mouse, liver microsomes. For orientation: Liver microsomes are vesicles of endoplasmic reticulum, rich in cytochrome P450 enzymes.
Description: Metabolic stability of the compound in mouse liver microsomes assessed as parent compound remaining at 1 uM preincubated for 5 mins followed by NADPH addition and measured after 60 mins by LC-MS/MS analysis
The nature of series [7]: in vitro. As to conditions: human, liver microsomes.
Description: Metabolic stability of the compound in human liver microsomes assessed as parent compound remaining at 1 uM preincubated for 5 mins followed by NADPH addition and measured after 60 mins by LC-MS/MS analysis
Series [8] can be described thus: in vitro. As to conditions: human, liver microsomes. The source holds these as a separate data set.
Description: Half life in human liver microsomes at 1 uM preincubated for 5 mins followed by NADPH addition and measured for 60 mins by LC-MS/MS analysis
The nature of series [9]: in vitro. As to conditions: mouse, liver microsomes. The source holds these as a separate data set.
Description: Intrinsic clearance in mouse liver microsomes at 1 uM preincubated for 5 mins followed by NADPH addition and measured for 60 mins by LC-MS/MS analysis
Series [10] can be described thus: AUC (0 to t) in human NCI-H2228 cells xenografted BALB/c nu/nu mouse plasma at 50 mg/kg, po qd for 23 days by UPLC-MS/MS analysis. The format is ADME, organism-based. Also noted: time 23 day, dose 50 mg/kg, route po.
The nature of series [11]: in vitro. Conditions: human, liver microsomes. This is another data set of the same source.
Description: Intrinsic clearance in human liver microsomes at 1 uM preincubated for 5 mins followed by NADPH addition and measured for 60 mins by LC-MS/MS analysis
Series [12] in a line: in vitro. As to conditions: mouse, liver microsomes. This is another data set of the same source.
Description: Half life in mouse liver microsomes at 1 uM preincubated for 5 mins followed by NADPH addition and measured for 60 mins by LC-MS/MS analysis
Series [13] deals with NCI-H2228. In words: animal or person. Conditions: Mus musculus, NCI-H2228, po, 552 h, read-out: TGI.
Series [14] is described as follows: Toxicity in BALB/c nu/nu mouse xenografted with human NCI-H2228 cells assessed as body weight loss at 50 mg/kg, po qd for 23 days. The format is organism-based. Conditions: in vivo, 552 h, time 23 day.

With `Cc1cc(Nc2ncc(Cl)c(Nc3cccc4c3B(O)OC4)n2)c(OC(C)C)cc1C1CCNCC1`, the 50% inhibitory concentration (IC50) in series [1] is 617 nM. This counts as sub-micromolar.
The same measure, in the same setting: next, `COc1cc(N2CCC(N(C)C)CC2)ccc1Nc1ncc(Cl)c(Nc2cccc3c2B(O)OC3)n1`: 624 nM; `COc1cc(N2CCC(N3CCN(C)CC3)CC2)ccc1Nc1ncc(Cl)c(Nc2cccc3c2B(O)OC3)n1`: 699 nM.
For `COc1cc(N2CCC(N(C)C)CC2)ccc1Nc1ncc(Cl)c(Nc2ccc3c(c2)B(O)OC3)n1`, the Tmax in [2] worked out at 3.6 h. For the same compound, in series [3], the peak level (Cmax) was 3200 ng/mL. In series [4], the concentration at 552 h came out at 1200 ng/g. Besides, the Activity entry in [5] and in series [14] was “Non-Toxic” throughout. Moreover, the results for the share remaining at 1 h, 1 µM in series [6] and in series [7] were 32.8% and 82.6%, respectively. In addition, the half-life at 1 h, 1 µM in series [8] was 3.97 h; in [12] it was 0.633 h. Moreover, the microsomal CLint at 1 h, 1 µM came to 36.5 µL/min/mg in series [9] and 5.8 µL/min/mg in [11]. In addition, the AUC(0-t) at 552 h in [10] stood at 15400 ng·h/mL. Further, the concentration for half-maximal inhibition (IC50) in series [1] worked out at 520 nM. Further, the inhibition in vivo at 50 mg/kg in series [13] was 52%.
In turn, `Cc1cc(Nc2ncc(Cl)c(Nc3ccc4c(c3)B(O)OC4)n2)c(OC(C)C)cc1C1CCNCC1` returned an IC50 in [1] of 2550 nM.
On the same count and under the same terms, next, `COc1cc(N2CCC(N3CCN(C)CC3)CC2)ccc1Nc1ncc(Cl)c(Nc2ccc3c(c2)B(O)OC3)n1`: 1130 nM.
Regarding `COc1cc(N2CCN(C)CC2)ccc1Nc1ncc(Cl)c(Nc2ccc3c(c2)B(O)OC3)n1`, the figures for the fraction remaining at 1 h, 1 µM in series [6] and in series [7] were 37.4% and 77.8%, respectively. Besides, the half-life at 1 h, 1 µM in series [8] is 2.97 h; in series [12], 0.725 h. The intrinsic clearance (microsomal CLint) at 1 h, 1 µM in [9] is 31.9 µL/min/mg; in series [11], 7.8 µL/min/mg. This compound returned an IC50 in [1] of 825 nM.

A word on the IC50: it is the concentration needed to halve the response being measured. By Tmax is commonly meant the time from dosing to the highest level. By Cmax is commonly meant the highest concentration seen after dosing. Broadly, the amount remaining is what is left of the initial amount, in per cent. A word on the half-life: it is the time in which the quantity being followed falls by half. A low value points to fast loss. Usually microsomal CLint stands for the capacity of the preparation to metabolise the compound, expressed as a volume cleared per time. In general, AUC(0-t) refers to the area under the concentration-time curve up to a stated or last time point.
